Here are results for 8 compounds from patent US4668686A, “Imidazoquinoline antithrombrogenic cardiotonic agents” (Bristol-Myers Company, priority 1986, dated 1987).

The subject of assay [1] is collagen-induced platelet aggregation. Nature of the assay: In vitro inhibition of collagen-induced platelet aggregation (aggregometer, rabbit PRP). It is filed as cell-based. Particulars: Oryctolagus cuniculus, read-out: Platelet Inhibition In Vitro - Rabbit PRP EC50 vs. collagen. The protocol: (§1) The aggregometer method of Born (1), as modified by Mustard, et al. (2) was used to assess the in vitro activity of the various compounds as to inhibition of adenosine diphosphate (ADP) and collagen-induced platelet aggregation. Platelet rich plasma (PRP) was separated by centrifugation from citrated (3.8 percent) rabbit blood. […] The various compounds tested were dissolved in dimethylsulfoxide (DMSO) so that 5 mcl added to the platelet rich plasma would yield the desired test concentration. Vehicle control trials were done and compared with aggregation induced in platelet rich plasma containing various concentrations of the test compounds. Dose response curves were obtained and Effective Concentration (EC50) values calculated.

The subject of assay [2] is right ventricular contractile force (RVCF). Nature of the assay: In vivo inotropic activity (right ventricular contractile force, anesthetized ferrets). Particulars: Mustela putorius, intraduodenal, read-out: Inotropic Activity In Vivo - Ferret % Change RVCF. The protocol: This test is carried out in ferrets as follows.
Fasted anesthetized ferrets are instrumented to study hemodynamic parameters as well as right ventricular contractile force using a Walton-Brodie open strain guage arch. Drugs are administered intraduodenally as solutions in DMSO (1 mL or less) and effects on myocardial contractile force and other parameters are monitored for 60 minutes after dosing. Changes in contractile force in response to drug treatment are expressed in terms of percent change from predose control.

Assay [3] relates to ADP-induced platelet aggregation. Nature of the assay: In vitro inhibition of ADP-induced platelet aggregation (aggregometer, rabbit PRP). The assay is classed as cell-based. Particulars: Oryctolagus cuniculus, read-out: Platelet Inhibition In Vitro - Rabbit PRP EC50 vs. ADP. Here is the method:
as §1

The target in assay [4] is T1, cAMP phosphodiesterase (PDE) obtained from human platelets (Homo sapiens, UniProt Q14432).
T1 construct: obtained from human platelets; from tissue; host or cells: human platelets
T1 sequence (Q14432 whole entry): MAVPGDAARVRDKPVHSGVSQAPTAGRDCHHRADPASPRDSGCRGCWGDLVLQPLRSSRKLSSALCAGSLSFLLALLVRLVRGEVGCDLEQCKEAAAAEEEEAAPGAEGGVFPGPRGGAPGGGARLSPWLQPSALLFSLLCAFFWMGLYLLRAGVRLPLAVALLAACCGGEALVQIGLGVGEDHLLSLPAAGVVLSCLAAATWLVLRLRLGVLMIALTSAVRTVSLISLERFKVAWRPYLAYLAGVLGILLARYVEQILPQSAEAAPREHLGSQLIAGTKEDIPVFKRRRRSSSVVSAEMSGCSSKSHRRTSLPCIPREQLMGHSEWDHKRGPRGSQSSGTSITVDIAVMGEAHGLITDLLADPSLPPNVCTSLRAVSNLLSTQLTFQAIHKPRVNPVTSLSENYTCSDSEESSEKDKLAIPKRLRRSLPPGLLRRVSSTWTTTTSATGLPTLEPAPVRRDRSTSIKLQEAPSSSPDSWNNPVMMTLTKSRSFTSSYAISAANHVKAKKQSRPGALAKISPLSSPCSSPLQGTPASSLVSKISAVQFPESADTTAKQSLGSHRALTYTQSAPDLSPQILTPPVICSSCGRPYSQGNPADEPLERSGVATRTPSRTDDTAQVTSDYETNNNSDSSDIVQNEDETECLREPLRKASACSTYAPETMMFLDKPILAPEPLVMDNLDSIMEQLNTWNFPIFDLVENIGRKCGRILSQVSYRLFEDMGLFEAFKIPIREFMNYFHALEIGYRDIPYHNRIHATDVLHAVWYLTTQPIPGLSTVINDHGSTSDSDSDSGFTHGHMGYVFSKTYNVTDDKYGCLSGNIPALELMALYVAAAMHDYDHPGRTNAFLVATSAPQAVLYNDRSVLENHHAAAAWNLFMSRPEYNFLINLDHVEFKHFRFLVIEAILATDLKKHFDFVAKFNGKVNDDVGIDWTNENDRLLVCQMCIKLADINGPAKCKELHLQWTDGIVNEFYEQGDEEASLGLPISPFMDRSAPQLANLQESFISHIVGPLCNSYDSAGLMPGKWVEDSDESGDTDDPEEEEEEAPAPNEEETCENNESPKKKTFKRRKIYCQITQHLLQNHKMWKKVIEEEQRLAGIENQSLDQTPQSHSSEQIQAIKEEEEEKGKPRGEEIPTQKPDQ
Nature of the assay: Inhibition of cyclic AMP phosphodiesterase. The assay is classed as biochemical. Here is the method:
This assay is carried out essentially as described by Thompson, et al., Methods in Enzymology, 38, 205-212 (1974). Briefly, tritium labeled cyclic adenosine monophosphate (cAMP) is incubated with a phosphodiesterase (PDE) enzynme obtained from human platelets which converts a portion of the cAMP to 5'AMP in culture tubes. This reaction is terminated by submerging the tubes in a boiling water bath after which they are placed on ice and an aliquot of snake venom is added to each tube. This, during a second incubation, converts the 5'AMP to adenosine. Ion exchange resin is added to bind the remaining cyclic AMP. The tubes are centrifuged to sediment the resin and a portion of the clear supernatent (which contains radioactive adenosine) is counted in a liquid scintillation counter. The cAMP phosphodiesterase inhibition activity of a test agent is determined by pre-incubating the PDE enzyme preparation with the test agent.

For assay [5], the system named is platelet aggregation vs. ADP. Nature of the assay: Inhibition of platelet aggregation following oral administration (Ex vivo). The assay is classed as in vivo. Particulars: Rattus norvegicus, rats, 2 hours after dosing. The protocol: This test is sometimes referred to in the art as an Ex vivo method and was initially described by Fleming, et al., Arch. Int. Pharmacodyn. Ther., 199, 164 (1972). Briefly, the assay is essentially carried out as follows. Aggregometry is performed in vitro as previously described on platelet rich plasma samples obtained from rats dosed with either test compounds or the vehicle. In all cases, activity is determined 2 hours after the drug is administered orally at various doses by gavage as a suspension in […] plus a few drops of Tween 20.

Setting [6] is: 3 mg/kg, i.d., mean ± standard error when n more than 1.

Converted amounts (≈) assume the structure as drawn. Like-named read-outs stand apart in the source and are kept apart here. Where only a bound is given, the exact number is not on record here.

For `COc1ccc2nc3[nH]c(=O)[nH]c3cc2c1` [Example 12, 7-Methoxy-1,3-dihydro-2H-imidazo[4,5-b]quinolin-2-one], in assay [1], the EC50 stood at 0.02 µg/mL (≈ 0.0929 µM). Moreover, the change in vivo at 3 mg/kg in assay [2] (setting [6]) is 11 ± 4%.
On to `Cc1cccc2c1CC1NC(=O)NC1=N2` (centres unmarked) [Example 20-3, 8-methyl-1,3,9,9a-tetrahydro-2H-imidazo[4,5-b]quinolin-2-one], for which the EC50 worked out at 0.05 µg/mL (≈ 0.248 µM) in assay [3] and 0.03 µg/mL (≈ 0.149 µM) in assay [1]. For the same compound, the IC50 in assay [4] came out at 100 nM. Moreover, the change in vivo at 0.3 mg/kg in assay [2] (0.3 mg/kg, i.d.) was 30 ± 5%. Besides, the change in vivo at 3 mg/kg in assay [2] (setting [6]) worked out at 15 ± 4%.
Regarding `O=c1[nH]c2cc3cc(Br)ccc3nc2[nH]1` [Example 22, 7-Bromo-1,3-dihydro-2H-imidazo[4,5-b]quinolin-2-one], the figures for the EC50 in assay [3] and in assay [1] were 0.3 µg/mL (≈ 1.14 µM) and 0.2 µg/mL (≈ 0.757 µM), respectively. Besides, it took 100 nM to reach half-maximal inhibition in assay [4] (IC50).
As to `O=c1[nH]c2cc3ccc(C(F)(F)F)cc3nc2[nH]1` [Example 25, 1,3-Dihydro-6-(trifluoromethyl)-2H-imidazo[4,5-b]quinolin-2-one], the EC50 in assay [3] is 0.4 µg/mL (≈ 1.58 µM); in assay [1], 0.7 µg/mL (≈ 2.76 µM). In addition, the ED50 in assay [5] is more than 10 mg/kg. In assay [4], this compound returned an IC50 of 300 nM.
Turning to `Cc1ccc2c(c1C)CC1NC(=O)NC1=N2` (centres unmarked) [Example 35, 7,8-Dimethyl-1,3,9,9a-tetrahydro-2H-imidazo-[4,5-b]quinolin-2-one], the results for the EC50 in assay [3] and in assay [1] were 0.1 µg/mL (≈ 0.465 µM) and 0.04 µg/mL (≈ 0.186 µM), respectively. The same compound yielded an ED50 in assay [5] of more than 10 mg/kg. Besides, the IC50 in assay [4] is 30 nM.
For `Cc1cccc2c1CC1C(=N2)NC(=O)N1C` (centres unmarked) [Example 36, 1,3,9,9a-Tetrahydro-1,8-dimethyl-2H-imidazo[4,5-b]quinolin-2-one], the EC50 is 20 µg/mL (≈ 92.9 µM) in assay [3] and 12 µg/mL (≈ 55.7 µM) in assay [1].
`OCCN(CCO)c1nc(N2CCCCC2)c2nc(N(CCO)CCO)nc(N3CCCCC3)c2n1` [dipyridamole, reference compound]: in assay [3], the EC50 is more than 512 µg/mL. For the same compound, in assay [5], the ED50 was more than 100 mg/kg.
Consider `Cc1[nH]c(=O)c(C#N)cc1-c1ccncc1` [milrinone, reference compound], for which, in assay [2], the change in vivo at 3 mg/kg was found to be 52%.

A word on the EC50: it is the concentration giving half of the maximal effect. The IC50 is the point on the concentration scale where inhibition reaches its midpoint. Read a low IC50 as greater potency in that assay. As a reminder, the ED50 is the dose that gives a 50% effect, or the effect in half of the subjects. Higher therefore signals weaker potency.
